19 compounds from patent publication US20240262842A1, “SMALL MOLECULE INHIBITORS OF KRAS G12C MUTANT” (Merck Sharp & Dohme LLC, priority 2021, published 2024) can be followed below.

The subject of one test is MIA PaCa-2 cells. Briefly: Growth inhibition activity on KRAS-G12C mutant cell line (CellTiter-Glo 3D). The test is classed as cell-based, human. To be noted: MIA PaCa-2, 3-day culture with compound. The procedure, abridged: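 MIA PaCa-2 cells in RPMI1640 with 10% FBS, U-bottom wells, cultured 1 day before compound (0.2% DMSO final), then 3 days at 37 °C, 5% CO2. Viability by CellTiter-Glo 3D luminescence; growth inhibition versus untreated wells gives IC50 (nM).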

Test [1] concerns the target T1, interaction between GMPPNP-bound recombinant K-Ras4B G12C mutant protein and cRAF RAS-binding domain (cRAF-RBD) (Homo sapiens, UniProt P01116, G12C).
T1 construct: His-tag (N)
The experiment in a line: Inhibitory activity on interaction between KRAS G12C and cRAF (Alpha technology). The method in brief: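 His-tagged K-Ras4B G12C (aa 1-169), GMPPNP-loaded, preincubated with compound 1 h at 25° C in pH 7.5 Tris buffer with MgCl2, TCEP, Tween 20. cRAF-RBD (aa 50-132) and Alpha reagents then added for 1.5 h; Alpha signal normalised to DMSO (0%) and GDP-bound KRAS (100%); IC50 from dose titration.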

Setting [2] is: IC50, GMPPNP-bound KRAS G12C incubated with compound 25° C. 1 hour, Table 2.
[3] abbreviates: Homo sapiens, MIA PaCa-2, 72 h, Table 3-1.
Setting [4] is: GMPPNP-bound KRAS G12C incubated with compound 25° C. 1 hour, Table 2-1, read-out: IC50.
Where [5] appears, read: Homo sapiens, MIA PaCa-2, 72 h, Table 3.
[6] abbreviates: GMPPNP-bound KRAS G12C incubated with compound 25° C. 1 hour, Table 2, read-out: IC50.
Setting [7] is: IC50, GMPPNP-bound KRAS G12C incubated with compound 25° C. 1 hour, Table 2-1.

SMILES strings stand for the structures. Read-outs that look alike come from different tables or passages of the source.

T1 sequence (P01116 with tags, fused parts or gaps isoform P01116-2 G12C): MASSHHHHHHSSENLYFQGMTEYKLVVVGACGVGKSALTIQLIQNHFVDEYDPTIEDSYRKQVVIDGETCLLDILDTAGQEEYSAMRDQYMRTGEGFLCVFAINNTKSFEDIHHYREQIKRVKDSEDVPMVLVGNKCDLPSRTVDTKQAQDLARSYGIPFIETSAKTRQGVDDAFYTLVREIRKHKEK

On to `CO[C@H]1CC[C@H](NC/C=C/C(=O)Nc2c(F)cc(C(=O)c3cn4c5c(cccc35)-c3c(cccc3C(F)(F)F)OCC4)cc2F)CC1` (single isomer, unassigned) [Example 11-2], for which the IC50 in the test with MIA PaCa-2 cells (Table 3) came to 0.091 µM; in test [1] (setting [2]), 0.077 µM.

For `COCCn1cnc2c3c(c(OC)cc21)-c1cccn2c(C(=O)c4cc(F)c(NC(=O)/C=C/CNC5(C)CC5)c(F)c4)cc(c12)CCN3C` (single isomer, unassigned) [Example 202, (E)-N-(2,6-difluoro-4-(7-methoxy-9-(2-methoxy-ethyl)-12-methyl-9,12,13,14-tetrahydro-imidazo[4″,5″:5′,6′]benzo-[1′,2′:2,3]azocino[4,5,6-hi]indolizine-2-carbonyl)-phenyl)-4-((1-methyl-cyclopropyl)amino)but-2-enamide], the values for the IC50 (with MIA PaCa-2 cells (setting [3]); in test [1] (setting [4])) were 0.0102 µM and 0.013 µM, respectively.

Regarding `CO[C@H]1CC[C@H](NC/C=C/C(=O)Nc2c(F)cc(C(=O)c3cn4c5c(cccc35)-c3c(Cl)cccc3OCC4)cc2F)CC1` (single isomer, unassigned) [Example 1-2], the half-inhibitory concentration (IC50) in the test on MIA PaCa-2 cells (Table 3) was determined as 0.16 µM; in test [1] (setting [2]) it was 0.18 µM.

As for `Cc1nc2c3c(c(C(F)(F)F)cc2n1C)-c1cccn2c(C(=O)c4cc(F)c(NC(=O)/C=C/CNC5(C)CC5)c(F)c4)cc(c12)CCO3` [Example 35], the IC50 in the test on MIA PaCa-2 cells (setting [5]) came out at 0.014 µM; in test [1] (setting [6]), 0.013 µM.

For `Cc1nc2c3c(c(C(F)(F)F)cc2n1C)-c1cccn2c(C(=O)c4cc(F)c(NC(=O)/C=C/CNC5(C)CCOCC5)c(F)c4)cc(c12)CCO3` [Example 39], the IC50 with MIA PaCa-2 cells (setting [5]) was 0.012 µM; in test [1] (setting [6]), 0.008 µM.

In the case of `Cc1cc2c(nc(C)n2C)c2c1-c1cccc3c(C(=O)c4cc(F)c(NC(=O)/C=C/CNC5COC(C)(C)C5)c(F)c4)cn(c13)CCN2C` (centres unmarked) [Example 124, (E)-N-(2,6-difluoro-4-(6,8,9,11-tetramethyl-8,11,12,13-tetrahydro-imidazo[4″,5″:5′,6′]benzo-[1′,2′:5,6][1,4]diazocino-[7,8,1-hi]indole-2-carbon-yl)phenyl)-4-((5,5-dimeth-yltetrabydrofuran-3-yl)-amino)but-2-enamide], the IC50 was 0.0137 µM with MIA PaCa-2 cells (setting [3]) and 0.013 µM in test [1] (setting [7]).

Turning to `CO[C@H]1CC[C@H](NC/C=C/C(=O)Nc2c(F)cc(C(=O)c3cn4c5c(cccc35)-c3c(C)cc5c(nc(C)n5C)c3N(C)CC4)cc2F)CC1` [Example 44], the half-maximal inhibitory concentration (IC50) in the test with MIA PaCa-2 cells (setting [5]) is 0.01 µM; in test [1] (setting [2]), 0.03 µM.

For `COCc1nc2c3c(c(OC)cc2n1C)-c1cccn2c(C(=O)c4cc(F)c(NC(=O)/C=C/CN[C@H]5CCOC5)c(F)c4)cc(c12)CCN3C` (single isomer, unassigned) [Example 171], the IC50 turned out to be 0.0135 µM with MIA PaCa-2 cells (setting [3]) and 0.00634 µM in test [1] (setting [4]).

With `CN1CCc2cc(C(=O)c3cc(F)c(NC(=O)C=CCNC4COCC4O)c(F)c3)n3cccc(c23)-c2c(C(F)(F)F)cc3c(ncn3C)c21` [Example 138, (E)-N-(4-(9,12-dimethyl-7-(trifluoromethyl)-9,12,13,14-tetrahydro-imidazo[4″,5″:5′,6′]benzo-[1′,2′:2,3]azocino[4,5,6-hi]indolizine-2-carbonyl)-2,6-difluorophenyl)-4-(((3R,4S)-4-hydroxytetra-hydrofuran-3-yl)amino)-but-2-enamide], the 50% inhibitory concentration (IC50) in the test with MIA PaCa-2 cells (setting [3]) turned out to be 0.0308 µM; in test [1] (setting [4]), 0.0472 µM.

Take `CO[C@H]1CC[C@H](NC/C=C/C(=O)Nc2ccc(C(=O)c3cn4c5c(cccc35)-c3c(C(F)(F)F)cc5c(nc(C)n5C)c3N(C)CC4)nc2)CC1` [Example 88, (E)-4-(((1r,4r)-4-methoxy-cyclohexyl)amino)-N-(6-(8,9,11-trimethyl-6-(trifluoromethyl)-8,11,12,13-tetrahydro-imidazo[4″,5″:5′,6′]benzo-[1′,2′:5,6][1,4]diazocino-[7,8,1-hi]indole-2-carbon-yl)pyridin-3-yl)but-2-enamide]: the results for the IC50 (in the test on MIA PaCa-2 cells (setting [3]); in test [1] (setting [4])) were 0.00692 µM and 0.0395 µM, respectively.

In the case of `COCc1nc2c3c(c(C(F)(F)F)cc2n1C)-c1cccn2c(C(=O)c4cc(F)c(NC(=O)/C=C/CN[C@H]5CCOC5)c(F)c4)cc(c12)CCO3` [Example 118, (S,E)-N-(2,6-difluoro-4-(10-(methoxymethyl)-9-methyl-7-(trifluorometh-yl)-13,14-dihydro-9H-imidazo[4″,5″:5′,6′]benzo-[1′,2′:2,3]oxocino[4,5,6-hi]indolizine-2-carbonyl)-phenyl)-4-((tetrahydro-furan-3-yl)amino)but-2-enamide], the IC50 amounted to 0.0042 µM in the test with MIA PaCa-2 cells (setting [3]) and 0.0126 µM in test [1] (setting [4]).

Regarding `CN1CCc2cc(C(=O)c3cc(F)c(NC(=O)/C=C/CN[C@@H]4CCOC4)c(F)c3)n3cccc(c23)-c2c(C(F)(F)F)cc3c(ncn3C)c21` (single isomer, unassigned) [Example 89], the IC50 in the test with MIA PaCa-2 cells (setting [3]) came to 0.00437 µM; in test [1] (setting [4]) it was 0.016 µM.

With `CN1CCn2cc(C(=O)c3cc(F)c(NC(=O)/C=C/CNC4(C)COC4)c(F)c3)c3cccc(c32)-c2c(C(F)(F)F)cc3c(ncn3C)c21` [Example 61, (E)-N-(4-(8,11-dimethyl-6-(trifluoromethyl)-8,11,12,13-tetrahydro-imidazo[4″,5″:5′,6′]benzo-[1′,2′:5,6][1,4]diazocino-[7,8,1-hi]indole-2-carbon-yl)-2,6-difluorophenyl)-4-((3-methyloxetan-3-yl)-amino)but-2-enamide], the IC50 amounted to 0.0163 µM in the test on MIA PaCa-2 cells (setting [3]) and 0.0763 µM in test [1] (setting [7]).

Turning to `Cc1nc2c3c(c(C(F)(F)F)cc2n1C)-c1cccc2c(C(=O)c4cc(F)c(NC(=O)/C=C/CN[C@H]5CCOC5)c(F)c4)cn(c12)CCN3C` (single isomer, unassigned) [Example 87], the half-inhibitory concentration (IC50) in the test on MIA PaCa-2 cells (setting [3]) stood at 0.00327 µM; in test [1] (setting [7]), 0.0182 µM.

Take `CN1CCc2cc(C(=O)c3cc(F)c(NC(=O)/C=C/CN4[C@@H]5CC[C@H]4[C@H](O)C5)c(F)c3)n3cccc(c23)-c2c(C(F)(F)F)cc3c(ncn3C)c21` (single isomer, unassigned) [Example 206]: the IC50 in the test on MIA PaCa-2 cells (setting [3]) is 0.0103 µM; in test [1] (setting [4]), 0.0154 µM.

Turning to `Cn1cnc2c3c(c(C(F)(F)F)cc21)-c1cccn2c(C(=O)c4cc(F)c(NC(=O)/C=C/CN5[C@@H]6CC[C@H]5[C@H](O)C6)c(F)c4)cc(c12)CCO3` (racemic) [Example 173], the IC50 came to 0.0106 µM in the test on MIA PaCa-2 cells (setting [3]) and 0.00702 µM in test [1] (setting [4]).

`Cc1cc2c(nc(C)n2C)c2c1-c1cccc3c(C(=O)c4cc(F)c(NC(=O)/C=C/CN[C@H]5CCOC5)c(F)c4)cn(c13)CCN2C` (single isomer, unassigned) [Example 90]: the IC50 in the test with MIA PaCa-2 cells (setting [3]) turned out to be 0.0216 µM; in test [1] (setting [7]), 0.0172 µM.

For the compound `CN1CCc2cc(C(=O)c3cc(F)c(NC(=O)/C=C/CNC4(C)COC4)c(F)c3)n3cccc(c23)-c2c(C(F)(F)F)cc3c(ncn3C)c21` (single isomer, unassigned) [Example 83], the IC50 was found to be 0.0154 µM in the test with MIA PaCa-2 cells (setting [3]) and 0.0339 µM in test [1] (setting [4]).

With `Cc1cc2c(ncn2C)c2c1-c1cccn3c(C(=O)c4cc(F)c(NC(=O)/C=C/CN[C@H]5CCOC5)c(F)c4)cc(c13)CCN2C` (single isomer, unassigned) [Example 117], the IC50 with MIA PaCa-2 cells (setting [3]) is 0.0553 µM; in test [1] (setting [4]), 0.0205 µM.
